# Where two headings read alike, the source gives them in different places. *1 amine or outer side, *2 acyl side, *3 side chain or, on linkers, in order; H or OH if unused. Where a SMILES comes first, the peptide text is derived from it. Bridges are numbered along the chain shown (N, C = ends). [ ]: non-standard residue; d: D form. The star is where a group is joined. Leu(3R-O(AcLeu(3R-OH))) = CC(=O)N[C@H](C(=O)O[C@H](C(C)C)[C@H](N)C(=O)O)[C@H](O)C(C)C; Leu(3R-OH,Nα-propionyl) = CCC(=O)N[C@H](C(=O)*)[C@H](O)C(C)C; X1 = CC(C)[C@@H](O[*:3])[C@H](N[*:1])C(=O)[*:2]; NMeT = CN[C@H](C(=O)O)[C@@H](C)O; dPhLac = O=C(O)[C@H](O)Cc1ccccc1; NMeA = CN[C@@H](C)C(=O)O; NMeDha = C=C(NC)C(=O)O
# Experiments:
# [1] = target: T1, human Gα11 (Homo sapiens, UniProt P29992); assay: Competition binding at membranes of HEK-CRISPR-Cas9-Gαq-KO cells expressing Gα11
# T1 construct: expressed in transfected cells; membrane preparations
# T1 sequence (P29992 1-359): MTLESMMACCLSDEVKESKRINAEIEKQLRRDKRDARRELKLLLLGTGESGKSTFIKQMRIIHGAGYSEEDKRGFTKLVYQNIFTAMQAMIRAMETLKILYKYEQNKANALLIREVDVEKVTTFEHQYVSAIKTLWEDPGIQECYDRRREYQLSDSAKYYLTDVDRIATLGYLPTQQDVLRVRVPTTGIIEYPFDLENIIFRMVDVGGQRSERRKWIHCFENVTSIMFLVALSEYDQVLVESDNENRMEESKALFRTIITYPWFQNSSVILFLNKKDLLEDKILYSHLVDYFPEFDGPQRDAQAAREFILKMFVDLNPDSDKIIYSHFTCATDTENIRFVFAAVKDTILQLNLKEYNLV
# Experimental: (§1) cDNAs encoding for the α‐subunits of the human G11, G14, G15 and mouse Gq guanine nucleotide‐binding proteins in a pcDNA3.1(+) vector were obtained from E. Kostenis. CRISPR/Cas9‐Gαq‐knockout (KO) HEK293 cells were from M. Yamaguchi. The protein sequences of the human and mouse Gαq proteins differ only by one amino acid in position 171 (alanine in human and serine in mouse). […]. After 16 hr, 3 ml of DMEM containing 10% FBS, 1% of a penicillin/streptomycin solution (final concentrations: penicillin = 100 U·ml^−1, streptomycin = 0.1 mg·ml^−1), and sodium butyrate (5 mM) was added to the packaging cells. They were kept at 32°C and 5% CO2 for 48 hr, during which the viral vectors containing the receptor sequence were produced and released into the surrounding medium. These were harvested, filtered ([…] filter pore diameter), and added to HEK293 cells that had previously been modified via CRISPR/Cas9 genome editing to lack Gαq expression. Polybrene solution (6 μl, 4 mg·ml^−1 in H2O, filtered) was added. After 2.5 hr, the virus‐containing medium was discarded, and DMEM supplemented with 10% FBS and 1% of a penicillin/streptomycin solution (final concentrations: penicillin = 100 U·ml^−1, streptomycin = 0.1 mg·ml^−1) was given to the cells. These were incubated for 2 days, followed by selection of successfully transfected cells with geneticin resistance by adding G418 (200 μg·ml^−1) to the medium. The cells were cultured in these media at 37°C and 10% CO2 until membrane preparations were generated.
# (§2) Recombinant HEK cells were cultured to 70% of confluence. The culture medium was discarded, and cells were washed once with approximately 5 ml of PBS. Dishes were stored at −20°C until further use. After defrosting, cells were detached with a rubber scraper after adding 5‐mM Tris–HCl, 2‐mM EDTA, pH 7.4. The collected cell suspension was homogenized using an Ultra‐Turrax® for 1 min at a speed level of 4. The cell suspension was transferred into tubes and centrifuged for 10 min at 1,000 g, 4°C. The pellet (P1) was discarded, and the supernatant was centrifuged for 45 min at 48,400 g, 4°C. The resulting supernatant was discarded, and the pellet (P2) was resuspended in 50‐mM Tris–HCl, pH 7.4, and centrifuged again for 45 min at 48,400 g, 4°C. This step was repeated once again, and the suspension was subsequently homogenized using an Ultra‐Turrax® for 1 min at a speed level of 4 (IKA Laborechnik), transferred into cryovials, and stored at −80°C (for up to several months). […]
# (§3) The experiments were performed in 50‐mM Tris–HCl buffer, pH 7.4. […] Non‐specific binding was determined in the presence of 5‐μM FR. […] Luma Safe® scintillation cocktail (2.5 ml) was added, and after 6 hr of incubation, the samples were counted for 1 min each, using a liquid scintillation counter (counting efficiency 53%). […]
# [2] = target: T2, human Gα14 (Homo sapiens, UniProt O95837); assay: Competition binding at membranes of HEK-CRISPR-Cas9-Gαq-KO cells expressing Gα14
# T2 construct: expressed in transfected cells; membrane preparations
# T2 sequence (O95837 1-355): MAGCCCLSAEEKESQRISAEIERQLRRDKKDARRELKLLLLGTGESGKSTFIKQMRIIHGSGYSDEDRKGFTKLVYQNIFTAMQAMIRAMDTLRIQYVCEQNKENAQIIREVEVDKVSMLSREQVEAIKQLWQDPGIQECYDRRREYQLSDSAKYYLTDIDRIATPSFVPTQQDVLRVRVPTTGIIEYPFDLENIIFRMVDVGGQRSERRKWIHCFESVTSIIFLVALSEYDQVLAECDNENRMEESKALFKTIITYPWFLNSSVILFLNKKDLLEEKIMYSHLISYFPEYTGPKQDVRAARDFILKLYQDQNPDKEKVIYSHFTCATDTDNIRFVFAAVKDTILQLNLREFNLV
# Experimental: as §1, §2, §3
# [3] = test system: Gq signalling via recombinantly expressed human P2Y1 receptor; assay: Calcium mobilization assay, ADP-induced (P2Y1 receptor) in 1321N1 astrocytoma cells; type: cell-based; settings: Homo sapiens; versus ADP (EC80), P2Y1 receptor, 1321N1 astrocytoma cells; read-out: pIC50, inhibition of calcium mobilization (converted)
# Experimental: The functional activity of YM, FR, and Ebselen as Gq protein inhibitors was determined by assessing their ability to antagonize ADP‐induced calcium mobilization in 1321N1 astrocytoma cells stably transfected with the human P2Y1 receptor, which is a Gq‐coupled receptor. In addition, the compounds' inhibitory effects on Carbachol‐induced calcium mobilization were studied in the same cell line, which endogenously express the Gq‐coupled muscarinic M3 ACh receptor. The assays were performed according to a previously described procedure (Rafehi et al., 2017) using a NOVOstar microplate reader (BMG Labtech, Offenburg, Germany).
SMILES,IC50 [1] [nM],"Pseudo-Bmax ± SD ([1]; FR versus [³H]PSB-15900 (5 nM), 37°C, G11) [pmol/mg]",IC50 [2] [nM],"Pseudo-Bmax ± SD ([2]; FR versus [³H]PSB-15900 (5 nM), 37°C, G14) [pmol/mg]",IC50 [3] [nM],"Pseudo-Bmax ± SD ([1]; YM versus [³H]PSB-16254 (5 nM), 37°C, G11) [pmol/mg]","IC50 ([1]; YM versus [³H]PSB-16254 (5 nM), 37°C, G11, read-out: pIC50 ± SD (converted)) [nM]","Pseudo-Bmax ± SD ([2]; YM versus [³H]PSB-16254 (5 nM), 37°C, G14) [pmol/mg]","IC50 ([2]; YM versus [³H]PSB-16254 (5 nM), 37°C, G14, read-out: pIC50 ± SD (converted)) [nM]"
"C=C1C(=O)N[C@@H](C)C(=O)N(C)[C@@H](C)C(=O)N[C@@H]([C@H](OC(=O)[C@@H](NC(=O)CC)[C@H](O)C(C)C)C(C)C)C(=O)N(C)[C@@H]([C@@H](C)OC)C(=O)O[C@H](C(C)C)[C@H](NC(C)=O)C(=O)O[C@H](Cc2ccccc2)C(=O)N1C [FR, FR900359] (Ac-[X1][dPhLac][NMeDha]A[NMeA][X1](Leu(3R-OH,Nα-propionyl))[NMeT](Me); ester 1-C)",10.5,6.23 ± 1.39,10,4.37 ± 0.71,0.692,–,–,–,–
"C=C1C(=O)N[C@@H](C)C(=O)N(C)[C@@H](C)C(=O)N[C@@H]([C@H](OC(=O)[C@@H](NC(C)=O)[C@H](O)C(C)C)C(C)C)C(=O)N(C)[C@@H]([C@@H](C)OC)C(=O)O[C@H](C)[C@H](NC(C)=O)C(=O)O[C@H](Cc2ccccc2)C(=O)N1C [YM, YM‐254890] (Ac-T[dPhLac][NMeDha]A[NMeA][Leu(3R-O(AcLeu(3R-OH)))][NMeT](Me); ester 1-C)",–,–,–,–,0.955,6.23 ± 2.92,8.71,3.18 ± 0.48,6.61

# From paper PMC7070167, “Cell‐permeable high‐affinity tracers for Gq proteins provide structural insights, reveal distinct binding kinetics and identify small molecule inhibitors” (British Journal of Pharmacology, 2020)
